Measurements published in PubChem BioAssay (NCI).
Several values for one entry are separate records, joined by “and”; a condition that tells them apart may be missing. Identical values can stand only once.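 Method: 48-hour compound exposure of cells in 96-well plates, five concentrations, linear interpolation of endpoints. GI50 = concentration required for 50% inhibition of growth. The concentration for full growth arrest is given as TGI.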

Legend:
Test in all cases: NCI tumour cell line growth inhibition, 48 h
BT-549 breast = system: BT-549 breast
DU-145 prostate = system: DU-145 prostate
HOP-92 NSCLC = system: HOP-92 NSCLC
EKVX NSCLC = system: EKVX NSCLC
NCI-H23 lung = system: NCI-H23 lung
U251 CNS = system: U251 CNS
SF-268 CNS = system: SF-268 CNS
A549 NSCLC = system: A549 NSCLC
SN12C renal = system: SN12C renal
SNB-19 CNS = system: SNB-19 CNS

SMILES	TGI (BT-549 breast)	TGI (DU-145 prostate) [µM]	TGI (HOP-92 NSCLC)	TGI (EKVX NSCLC) [µM]	TGI (NCI-H23 lung) [µM]	TGI (U251 CNS) [µM]	TGI (SF-268 CNS) [µM]	TGI (A549 NSCLC) [µM]	TGI (SN12C renal) [µM]	TGI (SNB-19 CNS) [µM]	GI50 (BT-549 breast)	GI50 (DU-145 prostate)	GI50 (HOP-92 NSCLC)	GI50 (EKVX NSCLC) [µM]	GI50 (NCI-H23 lung)	GI50 (U251 CNS)	GI50 (SF-268 CNS)	GI50 (A549 NSCLC)	GI50 (SN12C renal)	GI50 (SNB-19 CNS)
O=C(c1ccccc1)C1N=NCC1c1ccc([N+](=O)[O-])cc1 (configuration not stated)	65.8 µM	> 100	88.1 µM	> 100	> 100	> 100	> 100	> 100	> 100	> 100										
COc1cc(Cl)cc(-c2nn(C(=O)NCCN3CCOCC3)cc2-c2ccncc2)c1	35.2 µM	57.6	84.6 µM	79.9	> 100	> 100	> 100	> 100	> 100	> 100	3.87 µM	8.46 µM	4.35 µM	5.57	11.5 µM	4.7 µM	6.69 µM	9.97 µM	10 µM	7.58 µM
CCCC[C@H](NC(=O)[C@H]1CCCN1C)C(=O)N(C)[C@H](C[C@@H](OC(C)=O)c1nc(C(=O)N[C@@H](Cc2ccccc2)C[C@H](C)C(=O)OCC)cs1)C(C)C	0.447 µM	> 33.3	32.7 µM	> 33.3	> 33.3	> 33.3	25.2	> 33.3	8.41	> 33.3	0.0168 µM	0.0137 µM	1.9 µM	0.0591	0.0594 µM	0.0144 µM	0.0217 µM	0.0501 µM	0.0316 µM	0.01 µM
C=C1C(=O)O[C@H]2[C@H]1CC/C(COC(=O)NCc1ccccc1OC)=C\CC[C@@]1(C)O[C@@H]21	2.55 µM	1.98	3.72 µM	6.39	4.11	6.85	6.74	11.8		3.47	1.25 µM	0.698 µM	1.49 µM	1.98	1.74 µM	2.2 µM	2.2 µM	3.07 µM		1.57 µM
O=CNc1c(Cl)cc2c(c1Cl)Cc1cc([N+](=O)[O-])ccc1-2	> 86.9 µM	> 49.9	> 100 µM	13.6	> 66.8	> 76.3	> 100	> 100	> 100	> 100	16.3 µM	7.72 µM	6.73 µM	0.359	5.56 µM	5.87 µM	6.63 µM	4.55 µM	14.4 µM	16.5 µM
O=C(c1ccc(F)cc1)c1cccc(C(=O)c2ccc(F)cc2)n1	18.5 µM	> 100	44.4 µM	> 100	55.7	44.5	67.8	> 100	> 56.2	54										
Nc1ccn(Cc2ccc(C34CC5CC(CC(C5)C3)C4)c(O)c2)c(=O)n1	> 100 µM	> 100	71.4 µM	> 100	> 100	> 100	> 100		> 100	> 100	> 100 µM	> 100 µM	22.5 µM	93	54.5 µM	23.6 µM	67.1 µM		> 100 µM	89.1 µM
COc1cc(C2c3cc4c(cc3OC(N3CCCC3)C2C)OCO4)cc(OC)c1OC (configuration not stated)	11.5 µM	11.3	21.2 µM	> 95.5	7.27	13.2	> 59.3	50.4	28	15.4										
CC(C)(C)C[C@H]1NC(C(=O)NCC[C@H](O)CO)[C@H](c2cccc(Cl)c2)[C@@]12C(=O)Nc1cc(Cl)c(F)cc12 (some centres not stated)	34.2 µM	30.6	28.4 µM	29.1	41.6	30.5	30.2	17.4	46.8	59.8	16.3 µM	16.1 µM	13.3 µM	13.3	18.7 µM	15 µM	13.7 µM	3.13 µM	19.8 µM	21.1 µM
COC(=O)/C=C/C=C(c1ccccc1)c1ccccc1	19.6 µM	52.8	38.8 µM	32.8	> 100	29.3	> 100	> 100	> 100	> 100	3.4 µM	5.48 µM	3.52 µM	4.06	16.3 µM	3.6 µM	4.63 µM	5.02 µM	7.83 µM	9.31 µM
CC(C)NC[C@@H](C(=O)N1CCN(c2ncnc3c2[C@H](C)C[C@H]3O)CC1)c1ccc(Cl)cc1	> 10 µM and 56.2 µM	> 100	6.8 µM and 11.6 µM	> 10	> 100	> 100	> 100	> 100	> 100	> 89.5	0.752 µM and 1.59 µM	> 10 µM and 40.3 µM	0.407 µM and 1.13 µM	> 10	> 10 µM and 31.2 µM	0.958 µM and 0.683 µM	> 10 µM and 28.7 µM	> 10 µM and 5.05 µM	> 10 µM and 44.7 µM	1.64 µM and 1.38 µM
CCN(CC)c1ccc(C(=C2C=CC(=[N+](CC)Cc3cccc(S(=O)(=O)O)c3)C=C2)c2ccc(N(CC)Cc3cccc(S(=O)(=O)O)c3)cc2)cc1	> 91.7 µM	> 100	65.8 µM	> 100	80.2	> 100	> 79.4	> 100	> 100	> 100	5.45 µM	4.74 µM	15.2 µM	6.82	5.14 µM	3.58 µM	4.12 µM	4.28 µM	3.24 µM	14.2 µM
O=C(CC(=O)CC(O)(C(F)(F)F)C(F)(F)F)CC(O)(C(F)(F)F)C(F)(F)F	> 10 µM	> 10	> 10 µM	> 10	> 10	> 10	> 10	> 10	> 10	> 10										
N#Cc1cnc2cc(OC[C@H](O)CO)c(NC(=O)CC3CSSC3)cc2c1Nc1ccc(OCc2cccc(F)c2)c(Cl)c1	0.43 µM	1.36	8.04 µM	1.67	1.7	1.33	1.56	1.98	1.1	1.43	0.133 µM	0.637 µM	2.23 µM	0.696	0.772 µM	0.465 µM	0.537 µM	0.924 µM	0.35 µM	0.447 µM
C[C@H](Nc1ncnc2nc[nH]c12)c1cc2cccc(Cl)c2c(=O)n1-c1ccccc1	> 83.1 µM	> 100	69.7 µM		> 100	> 100	> 100	> 100	> 100	> 100	1.57 µM	26.2 µM	1.38 µM		82.1 µM	11.8 µM	22.6 µM	24.2 µM	3.11 µM	17.7 µM
Cc1ccc2c(ccc3c[n+]4c5ccccc5ccc4n32)c1	2.41 µM	12.3	5.47 µM	25.4	3.51	2.12	2.13	13.7	2.5	3.38	0.434 µM	1.32 µM	1.54 µM	0.484	0.606 µM	0.361 µM	0.39 µM	0.663 µM	0.297 µM	0.494 µM
CNC(=O)c1cncc(/C=C/c2ccccc2C)c1	> 25 µM	> 25	> 25 µM	> 25	> 25	> 25	> 25	> 25	> 25	> 25	> 25 µM	> 25 µM	> 25 µM	> 25	> 25 µM	> 25 µM	> 25 µM	> 25 µM	> 25 µM	> 25 µM
Cc1[c-]onc1C.Cc1[c-]onc1C.[Ag].[Ag].[NH-]S(=O)(=O)c1ccc(N=Nc2cc(N=Nc3ccc(S([NH-])(=O)=O)cc3)c3c(NC(=O)C(Cl)Cl)cccc3c2OC(=O)C(Cl)Cl)cc1	14.8 µM	14.8	18.4 µM		22.8	18.8	28.1	> 50	> 50	16.9	7.57 µM	7.38 µM	7.85 µM		8.3 µM	8.45 µM	8.78 µM	11 µM	14.9 µM	7.38 µM
CC(C)(C)C#CC1=C(Br)C(=O)OC1	19.7 µM	3.31	9.2 µM	4.71	19	> 36.5	33.3	8.73	17.7	> 100	4.89 µM	1.53 µM	2.82 µM	1.69	2.16 µM	0.997 µM	12.7 µM	1.3 µM	6.26 µM	24.7 µM
Cc1ccc(/C=C2\CN(C(=O)OC(C)(C)C)C/C(=C\c3ccc(C)cc3)C2=O)cc1	28.7 µM	> 100	> 100 µM	> 100	> 100	> 100	> 100	> 100	> 100	> 100	0.221 µM	0.158 µM	8.97 µM		0.516 µM	0.489 µM	0.34 µM		0.393 µM	0.226 µM
COC(=O)[C@@H](C)C[C@H](Cc1ccccc1)NC(=O)c1nc([C@@H](C[C@H](C(C)C)N(C)C(=O)[C@@H](NC(=O)[C@H]2CCCCN2C)C(C)C)OC(C)=O)sc1C	0.0568 µM	> 16.7	16.5 µM	> 16.7	> 16.7	> 16.7	> 16.7	> 16.7	> 16.7	> 16.7	< 0.00167 µM	< 0.00167 µM	0.00323 µM	0.00666	0.00302 µM	< 0.00167 µM	0.00472 µM	0.00734 µM	< 0.00167 µM	< 0.00167 µM
COc1ccc(N2C(C)=C(C#N)C34C(=O)N(c5ccccc5)C(=O)C3=C(O)C=CC24O)cc1 (configuration not stated)	22.4 µM	26.8	45.3 µM	85.8	58	25.7	80.2	> 100	21.9	50.2	9.75 µM	10.5 µM	12.5 µM	22.3	8.86 µM	13 µM	16.6 µM	26.3 µM	10 µM	18.4 µM
C[C@@H](C(=O)Nc1ccc(Cl)cc1)C1CCC(c2ccnc3ccc(F)cc23)CC1 (some centres not stated)	22.8 µM	> 100	9.15 µM	61.6	56.4	> 100	60.9	> 100	44.4	> 100	3.72 µM	12.6 µM	2.85 µM	4.54	3.93 µM	20 µM	8.55 µM	9.9 µM	8.23 µM	10.8 µM
O=C1c2ccccc2-c2c1c1ccccc1c(=O)n2CCCNCCCNCCCn1c2c(c3ccccc3c1=O)C(=O)c1ccccc1-2	2.08 µM	0.181	2.18 µM	0.595	1.64	0.122	4.13	0.183	< 0.0303	4.1	0.665 µM	0.0295 µM	0.587 µM	0.25	0.0383 µM	< 0.01 µM	0.231 µM	0.0174 µM	< 0.01 µM	0.681 µM
COC(=O)[C@]12CC[C@@H](C)[C@H](C)[C@@H]1C1=CC[C@@H]3[C@@]4(C)C[C@@H](OC(C)=O)[C@H](O)[C@@](C)(COC(C)=O)[C@@H]4[C@H](O)C[C@@]3(C)[C@]1(C)CC2	5.71 µM	11.9	5.68 µM	6.69	8.44	4.01	13.6	8.34			2.18 µM	3.48 µM	1.53 µM	2.22	2.73 µM	1.87 µM	3.11 µM	2.21 µM		2.78 µM
